The source of these data is US6281194A, “Cycloalkyl inhibitors of protein farnesyltransferase” (Warner-Lambert Company, priority 1999, dated 2001).

Assay [1] addresses T1, SF9 affinity purified rat farnesyl protein transferase (Rattus norvegicus, UniProt Q02293+Q04631).
T1 construct: made in house; host or cells: Sf9 insect cells (baculovirus system, inferred from b7)
The assay is described as follows: PFT inhibitory activity. Format: biochemical. The protocol: The protein:farnesyltransferase (PFT) or farnesyl protein transferase (FPT) inhibitory activity of compounds of the present invention were assayed in HEPES buffer (pH 7.4) containing 5 mM potassium phosphate and 20 μM ZnCl2. The solution also contained 5 mM DTT (dithiothreitol), 5 mM MgCl2 and 0.1% PEG 8000. Assays were performed in 96 well plates (Wallec) and employed solutions composed of varying concentrations of a compound of the present invention in 100% DMSO (dimethylsulfoxide). Upon addition of both substrates, radiolabeled farnesyl pyrophosphate ([1-^3 H], specific activity 15-30 Ci/mmol, final concentration 134 nM) and (biotinyl)-Ahe-Thr-Lys-Cys-Val-Ile-Met ([3aS[3a alpha, 4 beta, 6a alpha]-hexahydro-2-oxo-1H-thieno[3,4-d]imidazole-5-pentanoic acid]-[7-aminoheptanoic acid]-Thr-Lys-Cys-Val-Ile-Met) (Ahe is 7-aminoheptanoic acid, Thr is threonine, Lys is lysine, Cys is cysteine, Val is valine, Ile is isoleucine and Met is methionine) (final concentration 0.2 μM), the enzyme reaction was started by addition of SF9 affinity purified rat farnesyl protein transferase. After incubation at 30° C. for 30 minutes, the reaction was terminated by diluting the reaction 2.5-fold with a stop buffer containing 1.5 M magnesium acetate, 0.2 M H3 PO4, 0.5% BSA (bovine serum albumin), and strepavidin beads (Amersham) at a concentration of 1.3 mg/mL. After allowing the plate to settle for 30 minutes at room temperature, radioactivity was quantitated on a microBeta counter (Model 1450, Wallec). The assay was also carried out without 5 mM potassium phosphate.

Assay [2] has as its system ras farnesylation in ras-transformed cells. The assay is described as follows: Gel shift assay. Format: cell-based. The following applies: 18-hour incubation. The protocol: Twenty-four hours after planting 2×10^6 ras-transformed cells per treatment condition, the farnesylation inhibitor is added at varying concentrations. Following an 18-hour incubation period, cells are lysed in phosphate-buffered saline containing 1% Triton X-100, 0.5% sodium deoxycholate, and 0.1% SDS (sodium dodecyl sulfate), pH 7.4 in the presence of several protease inhibitors (PMSF (phenylmethylsulfonylfluoride), antipain, leupeptin, pepstatin A, and aprotinin all at 1 μg/mL). Ras protein is immunoprecipitated from the supernatants by the addition of 3 μg v-H-ras Ab-2 (Y13-259 antibody from Oncogene Science). After overnight immunoprecipitation, 30 μL of a 50% protein G-Sepharose slurry (Pharmacia) is added followed by 45-minute incubation. Pellets are resuspended in 2× tris-glycine loading buffer (Novex) containing 5% β-mercaptoethanol and then denatured by 5 minutes boiling prior to electrophoresis on 14% Tris-glycine SDS gels. Using Western transfer techniques, proteins are transferred to nitrocellulose membranes followed by blocking in blocking buffer. Upon overnight incubation with primary antibody (pan-ras Ab-2 from Oncogene Science), an antimouse HRP (horse radish peroxidase) conjugate secondary antibody (Amersham) is employed for detection of the ras protein. Blots are developed using ECL(enhanced chemiluminescence) techniques (Amersham).
A general note: A gel shift assay detects complexes by their altered migration in electrophoresis.

Assay [3] deals with H61 xenografts. Put plainly: In vivo activity, H61 xenografts in NCR-NU mice. On the procedure: Female NCR-NU mice were randomized and then inoculated with trocar fragments of H61 xenografts obtained from donor animals on Day 0 of the experiment. H61 cells are NIH3T3 cells that have been transfected and transformed with mutant human H-ras. The animals were then re-randomized to treatment groups. Tumor-bearing mice were then treated via subcutaneous (SC) or interperitoneal (IP) injections of Example 1 every 12 hours at various dose levels for 14 days beginning on Day 1. Tumors were measured with calipers in two orthogonal dimensions several times per week for the duration of the experiment. Tumor burdens in milligrams were estimated from the caliper measurements by standard methods (mg=axb^2 /2, where a and b are the measurements of the major and minor axes of the tumor, respectively.) Inhibition of tumor growth was assessed at the last day of treatment (14). […] In mice given Example 1 IP at either 37 or 23 mg/kg/injection, no tumors were evident at the sites of inoculation, indicating complete (100%) inhibition of tumor growth.

Assay [4] has as its system H61 cells: NIH transformed 3T3 H-ras cells. Put plainly: Clonogenic assay (6 well plates). Format: cell-based. The settings on record: H61 cells in soft agar, colonies counted after Day 13. On the procedure: Clonogenic Assay (6 well plates)
Sometime previous to setting up an actual test:
1. Make up 1.5% Bacto Agar in Milli-Q water and autoclave.
2. Make up 500 mL 2× DMEM-HG without phenol red by combining the following:
1 bottle DMEM base powder (Sigma D-5030)
Adjust pH to 7.1 with HCl; filter sterilize.
1. Set up makeshift water bath (beaker of water with thermometer, on hot plate) in the hood. Keep water temperature between 37° C. to 43° C.
2. […] 1.5% Bacto Agar for approximately 2 minutes on high, or until completely melted. Then let it cool somewhat before using it. (You can keep it from resolidifying by setting the bottle on the hot plate.) […]
Bottom Layer (0.6% agar) Top Layer (0.3% agar)
20% calf serum 20% calf serum
40% Bacto Agar (1.5%) 20% Bacto Agar (1.5%)
(H61 cells: NIH transformed
Depending on the volume of each layer needed, use either 50 mL conical tubes or 200 mL turnip tubes which can be floated in the "water bath".
4. Add 1 mL of bottom layer agar/medium to each well: deliver 1 mL warm agar/medium to a well; then using the tip of the pipet, spread the agar/medium around to completely cover the bottom. Repeat with next well.
5. Allow the plates to set at room temperature for about 5 minutes until the bottom layer solidifies.
6. Label sterile Falcon 2054 (12×75 mm) tubes and add appropriate volume of drug solutions into them.
7. Aliquot 4 μL of DMSO or drug solution per 1 mL of agar/medium to appropriate tubes; then add the agar/medium/cells to each tube. Always add 1 mL more than will actually be needed. Mix up and down in the pipet (gently); then deliver 1 mL to the center of each well. The upper layer is less viscous, so it will generally spread out over the bottom layer unaided. If necessary, rotate the plane of the plate gently to spread the top layer evenly over the bottom layer.
8. Let plates set for 5 or 10 minutes at room temperature to solidify, then put into 5% CO2, 37° C. incubator.
9. On Day 13, add 0.5 mL of INT (tetrazolium 1 mg/mL in Milli-Q H2 O, filter sterilized) and return plates to incubator.

The subject of assay [5] is EJ-1 human bladder carcinoma, HT1080 human fibrosarcoma and human colon carcinoma xenografts. The settings on record: 100 mg/kg, nude mice; cited from earlier work.
The test system of assay [6] is human lung carcinoma with K-ras mutation and p53 deletion. The following applies: nude mice; cited from earlier work.
The test system of assay [7] is mammary and salivary carcinomas. The settings on record: daily administration; cited from earlier work.
[8] abbreviates: SC 96 mg/kg/injection every 12 hours for 14 days, last day of treatment (14).

Like-named read-outs stand apart in the source and are kept apart here.

On to `O=C(CN(Cc1ccc(OCc2ccccc2)cc1)C(=O)[C@H](Cc1c[nH]cn1)NC(=O)OCc1ccccc1)NCC1(c2ccccc2)CCC1` [Example 1, (S)-[1-((4-Benzyloxy-benzyl)-{[1-(phenyl-cyclobutylmethyl)-carbamoyl]-methyl}-carbamoyl)-2-(1H-imidazol-4-yl)-ethyl]-carbamic Acid benzyl ester], for which the IC50 in assay [1] (HEPES buffer pH 7.4 with 5 mM potassium phosphate, read-out: PFT Inhibitory Activity IC50 (μM) HEPES and 5 mM K3 PO4) is 0.006 µM; in assay [1] (HEPES buffer pH 7.4 without 5 mM potassium phosphate, read-out: PFT Inhibitory Activity IC50 (μM) HEPES), 0.075 µM; in assay [4], 47 nM. In addition, in assay [2], the “Gel Shift (μM) M.E.D. (minimal effective dose to observe inhibition of ras farnesylation)” value was 0.02 µM. In addition, the “inhibition of tumor growth” value is listed as 100% in assay [3] (IP 23 mg/kg/injection every 12 hours for 14 days, no tumors evident at sites of inoculation); 100% in assay [3] (IP 37 mg/kg/injection every 12 hours for 14 days, no tumors evident at sites of inoculation); 73% in assay [3] (setting [8]). In addition, the “median tumor burden of the treated group” value in assay [3] (setting [8]) is recorded as 672 mg. In addition, the “inhibition of tumor growth (in words)” value in assay [3] (SC or IP every 12 hours for 14 days) is recorded as “significantly inhibited tumor growth”.

On to `COC(=O)[C@H](CCSC)NC(=O)[C@H](/C=C\[C@@H](/C=C/[C@@H](N)CS)C(C)C)Cc1ccccc1` [Example B1086], for which the “tumor growth (in words)” value in assay [5] is recorded as “inhibit tumor growth”.

On to `CSCC[C@H](NC(=O)c1ccc(NC[C@@H](N)CS)cc1-c1ccccc1)C(=O)O` [FTI276], for which the “tumor growth (in words)” value in assay [6] is given as “selectively block tumor growth”.

On to `CC[C@H](C)[C@@H](CO[C@@H](Cc1ccccc1)C(=O)N[C@@H](CCS(C)(=O)=O)C(=O)OC(C)C)NC[C@@H](N)CS` [L-744,832], for which the “tumor regression (in words)” value in assay [7] is recorded as “caused tumor regression”.

A word on the IC50: it is the midpoint of a concentration-inhibition curve.
